Data on 13 molecules can be found in US7329685B2, “1-Phenyl-2-oxo-3-sulfonylamino-pyrrolidine derivatives and related compounds as factor Xa inhibitors for the treatment of acute vascular diseases” (Glaxo Group Limited, priority 2003, dated 2008).

Where a name gives a salt, the structure may show the parent alone.

The assay deals with human Factor Xa (Homo sapiens, UniProt P00742). Kind of assay: In vitro assay for inhibition of Factor Xa (fluorogenic assay, Rhodamine 110 bis-CBZ-glycylglycyl-L-arginine amide substrate). It counts as biochemical. The note with it: Ki = IC50/1.6, tiers 'more preferably' and 'most preferably'. The protocol:
In Vitro Assay for Inhibition of Factor Xa
Compounds of the present invention were tested for their Factor Xa inhibitory activity as determined in vitro by their ability to Inhibit human Factor Xa in a fluorogenic assay, using Rhodamine 110, bis-CBZ-glycylglycyl-L-arginine amide as the fluorogenic substrate. Compounds were diluted from a 10 mM stock solution in dimethylsulfoxide at appropriate concentrations. Assay was performed at room temperature using buffer consisting of: 50 mM Tris-HCl, 150 mM NaCl, 5 mM CaCl2, pH 7.4. containing human Factor Xa (final conc. Of 0.0003U.ml-1). Compound and enzyme were preincubated for 15 min prior to addition of the substrate (final conc. of 10 μM). The reaction was stopped after 3 hrs with the addition of H-D-Phe-Pro-Arg-Chloromethylketone. An LJL-Analyst fluorimeter was used to monitor fluorescence with 485 nm excitation/535 nm emission. To obtain IC50 values the data were analysed using ActivityBase® and XLfit®.
Calculation of Ki values: Ki=IC50/(1+[Substrate]/Km)
The Ki value for the above assay can be obtained by dividing the IC50 value by 1.6.

Sequence of human Factor Xa (P00742 235-488 limits assumed): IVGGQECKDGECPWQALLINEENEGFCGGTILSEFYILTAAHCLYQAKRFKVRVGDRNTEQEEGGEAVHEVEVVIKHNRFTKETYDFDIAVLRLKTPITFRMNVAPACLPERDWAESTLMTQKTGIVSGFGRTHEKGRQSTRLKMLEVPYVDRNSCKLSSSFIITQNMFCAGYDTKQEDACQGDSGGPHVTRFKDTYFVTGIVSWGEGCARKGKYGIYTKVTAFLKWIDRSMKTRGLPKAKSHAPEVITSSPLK
Sequence of human Factor Xa (P00742 41-179 partner limits assumed): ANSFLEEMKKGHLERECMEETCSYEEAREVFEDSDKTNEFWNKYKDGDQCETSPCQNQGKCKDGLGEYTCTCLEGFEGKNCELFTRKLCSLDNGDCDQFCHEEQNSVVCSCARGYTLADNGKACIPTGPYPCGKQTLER

`C/C(=C\S(=O)(=O)N(CC1CC1)[C@H]1CCN(c2ccc(C(=O)N(C)C)cc2F)C1=O)c1ccc(Cl)s1` [Example 1, 4-{(3S)-3-[{[(1E)-2-(5-Chloro-2-thienyl)-1-propen-1-yl]sulfonyl}(cycloprotylmethyl)amino]-2-oxo-1-pyrrolidinyl}-3-fluoro-N,N-dimethylbenzamide] displayed an inhibition constant (Ki) of less than 10 nM.
Under `C/C(=C\S(=O)(=O)N(CCCN(C)C)[C@H]1CCN(c2ccc(C(=O)N(C)C)cc2F)C1=O)c1ccc(Cl)s1` [Example 2, 4-((3S)-3-{{[(1E)-2-(5-Chloro-2-thienyl)-1-propen-1-yl]sulfonyl}[3-(dimethylamino)propyl]amino}-2-oxo-1-Pyrrolidinyl)-3-fluoro-N,N-dimethylbenzamide formate] stands less than 10 nM; under `C/C(=C\S(=O)(=O)N(CCOCC(N)=O)[C@H]1CCN(c2ccc(C(=O)N(C)C)cc2F)C1=O)c1ccc(Cl)s1` [Example 4, 4-[(3S)-3-({2-[(2-Amino-2-oxoethyl)oxy]ethyl}{[(1E)-2-(5-chloro-2-thienyl)-1-propen-1-yl]sulfonyl}amino)-2-oxo-1-pyrrolidinyl]-3-fluoro-N,N-dimethylbenzamide], less than 10 nM.
For `C/C(=C\S(=O)(=O)N(C1CCCC1)[C@H]1CCN(c2ccc(C(=O)N(C)C)cc2F)C1=O)c1ccc(Cl)s1` [Example 5, 4-{(3S)-3-[{[(1E)-2-(5-Chloro-2-thienyl)-1-propen-1-yl]sulfonyl}(cyclopentyl)amino]-2-oxo-1-pyrrolidinyl}-3-fluoro-N,N-dimethylbenzamide] the value was less than 10 nM; for `C/C(=C\S(=O)(=O)N(Cc1nccn1C)[C@H]1CCN(c2ccc(C(=O)N(C)C)cc2F)C1=O)c1ccc(Cl)s1` [Example 6, 4-((3S)-3{{[(1E)-2-(5-Chloro-2-thienyl)-1-propen-1-yl]sulfonyl}[(1-methyl-1H-imidazol-2-yl)methyl]amino}-2-oxo-1-pyrrolidinyl)-3-fluoro-N,N-dimethylbenzamide], less than 10 nM.
Under `C/C(=C\S(=O)(=O)N(C(C)C)[C@H]1CCN(c2ccc(C(=O)N(C)C)cc2F)C1=O)c1ccc(Cl)s1` [Example 7, 4-{(3S)-3-[{[(1E)-2-(5-Chloro-2-thienyl)-1-propen-1-yl]sulfonyl}(1-methylethyl)amino]-2-oxo-1-pyrrolidinyl}-3-fluoro-N,N-dimethylbenzamide] stands less than 10 nM; under `C/C(=C\S(=O)(=O)N(Cc1ccccn1)[C@H]1CCN(c2ccc(C(=O)N(C)C)cc2F)C1=O)c1ccc(Cl)s1` [Example 8, 4-{(3S)-3-[{[(1E)-2-(5-Chloro-2-thienyl)-1-propen-1-yl]sulfonyl}(2-pyridinylmethyl)amino]-2-oxo-1-pyrrolidinyl}-3-fluoro-N,N-dimethylbenzamide], less than 10 nM.
For the molecule `C/C(=C\S(=O)(=O)N(Cc1c(C)noc1C)[C@H]1CCN(c2ccc(C(=O)N(C)C)cc2F)C1=O)c1ccc(Cl)s1` [Example 9, 4-((3S)-3-{{[(1E)-2-(5-Chloro-2-thienyl)-1-propen-1-yl]sulfonyl}[(3,5-dimethyl-4-isoxazolyl)methyl]amino}-2-oxo-1-pyrrolidinyl)-3-fluoro-N,N-dimethylbenzamide], the inhibitory constant (Ki) is less than 10 nM.
For `COCCN([C@H]1CCN(c2ccc(C(=O)N(C)C)cc2F)C1=O)S(=O)(=O)/C=C(\C)c1ccc(Cl)s1` [Example 10, 4-((3S)-3-{{[(1E)-2-(5-Chloro-2-thienyl)-1-propen-1-yl]sulfonyl}[2-(methyloxy)ethyl]amino}-2-oxo-1-pyrrolidinyl)-3-fluoro-N,N-dimethylbenzamide] the value was less than 10 nM; for `C/C(=C\S(=O)(=O)N(CCOC(C)(C)C)[C@H]1CCN(c2ccc(C(=O)N(C)C)cc2F)C1=O)c1ccc(Cl)s1` [Example 11, 4-[(3S)-3-({[(1E)-2-(5-Chloro-2-thienyl)-1-propen-1-yl]sulfonyl}{2-[(1,1-dimethylethyl)oxy]ethyl}amino)-2-oxo-1-pyrrolidinyl]-3-fluoro-N,N-dimethylbenzamide], less than 10 nM.
For `C/C(=C\S(=O)(=O)N(Cc1nccnc1N)[C@H]1CCN(c2ccc(C(=O)N(C)C)cc2F)C1=O)c1ccc(Cl)s1` [Example 12, 4-[(3S)-3-([(3-Amino-2-pyrazinyl)methyl]{[(1E)-2-(5-chloro-2-thienyl)-1-propen-1-yl]sulfonyl}amino)-2-oxo-1-pyrrolidinyl]-3-fluoro-N,N-dimethylbenzamide] the value was less than 10 nM; for `C/C(=C\S(=O)(=O)N(C)[C@H]1CCN(c2ccc(C(=O)N(C)C)cc2F)C1=O)c1ccc(Cl)s1` [Example 13, 4-{(3S)-3-[{[(1E)-2-(5-Chloro-2-thienyl)-1-propen-1-yl]sulfonyl}(methyl)amino]-2-oxo-1-pyrrolidinyl}-3-fluoro-N,N-dimethylbenzamide], less than 10 nM; for `CN(C)C(=O)c1ccc(N2CC[C@H](N(C)S(=O)(=O)/C=C/c3ccc(Cl)s3)C2=O)c(F)c1` [Example 14, 4-{(3S)-3-[{[(E)-2-(5-chloro-2-thienyl)ethenyl]sulfonyl}(methyl)amino]-2-oxo-1-pyrrolidinyl}-3-fluoro-N,N-dimethylbenzamide], less than 10 nM.

By Ki is commonly meant a measure of affinity in units of concentration, obtained from inhibition or displacement. A high value points to lower affinity.
